The values that follow come from publication PMC4167715 (Biochemistry, 2013).

In assay [1] the target is E. coli class II fructose 1,6-bisphosphate aldolase (EcFBA) (Escherichia coli, UniProt P0AB71). Nature of the assay: coupled fluorescence FBP cleavage assay, single concentration. In kind it is biochemical. Conditions: read-out: % inhibition at 25 μM.
Assay [2] has as its target M. tuberculosis class II fructose 1,6-bisphosphate aldolase (MtFBA) (Mycobacterium tuberculosis, UniProt P9WQA3). Nature of the assay: X-ray crystal structure. It counts as binding.
The target of assay [3] is S. aureus class II fructose 1,6-bisphosphate aldolase (SaFBA) (Staphylococcus aureus, UniProt Q5HE75). Nature of the assay: biochemical. As to conditions: read-out: % inhibition at 25 μM.
S. aureus class II fructose 1,6-bisphosphate aldolase (SaFBA), sequence (Q5HE75 whole entry): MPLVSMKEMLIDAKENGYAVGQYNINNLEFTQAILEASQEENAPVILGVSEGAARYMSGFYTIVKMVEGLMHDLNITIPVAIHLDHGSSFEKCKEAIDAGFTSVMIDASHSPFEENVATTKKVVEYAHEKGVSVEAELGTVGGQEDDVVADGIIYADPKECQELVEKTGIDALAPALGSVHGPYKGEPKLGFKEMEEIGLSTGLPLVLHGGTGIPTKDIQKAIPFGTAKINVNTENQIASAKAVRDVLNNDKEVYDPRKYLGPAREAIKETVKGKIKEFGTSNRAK

Structures are written as SMILES.

Broadly, the inhibition is the percentage by which the read-out fell short of the control. Broadly, the Kd is the concentration at which binding is half-saturated.

E. coli class II fructose 1,6-bisphosphate aldolase (EcFBA), sequence (P0AB71 2-359): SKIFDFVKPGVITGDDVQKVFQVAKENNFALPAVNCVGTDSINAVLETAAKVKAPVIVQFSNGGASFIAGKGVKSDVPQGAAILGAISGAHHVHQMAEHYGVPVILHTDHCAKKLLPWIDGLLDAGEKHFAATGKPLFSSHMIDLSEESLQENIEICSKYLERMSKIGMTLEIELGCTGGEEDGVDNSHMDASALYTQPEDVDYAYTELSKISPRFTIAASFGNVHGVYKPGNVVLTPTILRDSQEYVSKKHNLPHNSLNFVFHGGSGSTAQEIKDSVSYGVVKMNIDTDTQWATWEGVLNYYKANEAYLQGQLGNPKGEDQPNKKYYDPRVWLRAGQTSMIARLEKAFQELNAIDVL
M. tuberculosis class II fructose 1,6-bisphosphate aldolase (MtFBA), sequence (P9WQA3 whole entry): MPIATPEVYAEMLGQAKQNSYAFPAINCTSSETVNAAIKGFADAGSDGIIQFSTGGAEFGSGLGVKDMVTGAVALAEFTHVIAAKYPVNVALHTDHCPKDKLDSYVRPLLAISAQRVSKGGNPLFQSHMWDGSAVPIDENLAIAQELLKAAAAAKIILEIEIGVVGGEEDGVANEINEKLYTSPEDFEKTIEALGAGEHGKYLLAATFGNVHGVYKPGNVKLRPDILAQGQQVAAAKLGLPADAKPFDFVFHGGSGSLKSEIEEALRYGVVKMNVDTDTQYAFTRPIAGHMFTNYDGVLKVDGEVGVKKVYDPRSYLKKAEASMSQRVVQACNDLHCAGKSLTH

As to `O=C(O)c1ccc2cccc(O)c2n1` [HCA, 8-hydroxyquinoline-2-carboxylic acid], the results for the inhibition at 25 µM in assay [1] and in assay [3] were 42.2 ± 2.8% and 64.3 ± 0.6%, respectively. Also, binding in assay [2] was put at a Kd of 70.8 ± 2.7 µM.
